Assay results from ChEMBL document CHEMBL1139156, “Novel naphthyridines are histamine H3 antagonists and serotonin reuptake transporter inhibitors” (Bioorg Med Chem Lett, 2007).

Columns and labels:
[1] = target: T1, Histamine H3 receptor (Homo sapiens, UniProt Q9Y5N1); assay: Antagonist activity at human histamine H3 receptor expressed in SK-N-MC cells assessed as effect on cAMP accumulation; assay type: functional, cell-based; details: read-out: pA2 (converted)
[2] = Drug level in rat brain at 10 mg/kg, po after 24 hrs; assay type: ADME, organism-based; parameters: dose 10 mg/kg, route oral; details: read-out: Drug uptake
[3] = target: Sodium-dependent serotonin transporter (Homo sapiens, UniProt P31645); assay: Binding affinity to human SERT
Sequence of Sodium-dependent serotonin transporter (Homo sapiens, UniProt P31645) (P31645 whole entry): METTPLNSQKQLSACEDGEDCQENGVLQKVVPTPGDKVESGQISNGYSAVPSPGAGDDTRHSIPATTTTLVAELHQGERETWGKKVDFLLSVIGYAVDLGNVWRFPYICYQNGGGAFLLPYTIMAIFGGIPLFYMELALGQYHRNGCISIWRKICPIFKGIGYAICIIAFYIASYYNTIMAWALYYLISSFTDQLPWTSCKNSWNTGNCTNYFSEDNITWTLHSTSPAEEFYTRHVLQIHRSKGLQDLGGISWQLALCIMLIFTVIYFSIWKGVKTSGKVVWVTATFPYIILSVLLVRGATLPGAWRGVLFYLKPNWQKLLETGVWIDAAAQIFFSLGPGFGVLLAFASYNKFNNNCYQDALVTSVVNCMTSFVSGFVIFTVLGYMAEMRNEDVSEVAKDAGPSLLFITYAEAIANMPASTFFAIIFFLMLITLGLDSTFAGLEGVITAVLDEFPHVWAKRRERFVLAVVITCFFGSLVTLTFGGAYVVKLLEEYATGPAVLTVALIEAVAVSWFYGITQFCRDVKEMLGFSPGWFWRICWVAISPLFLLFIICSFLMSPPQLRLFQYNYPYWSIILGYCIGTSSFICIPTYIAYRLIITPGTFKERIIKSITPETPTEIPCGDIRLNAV

[4] = target: T1, Histamine H3 receptor; assay: Displacement of N-[3H]alpha-methylhistamine from human histamine H3 receptor expressed in SK-N-MC cells; assay type: cell-based
[5] = Cmax in rat plasma at 10 mg/kg, po after 1 hr; assay type: ADME, organism-based; parameters: dose 10 mg/kg, route oral
[6] = Cmax in rat brain at 10 mg/kg, po after 6 hrs; assay type: ADME, organism-based; parameters: dose 10 mg/kg, route oral
[7] = target: Sodium-dependent serotonin transporter (Rattus norvegicus, UniProt P31652); assay: Binding affinity to rat SERT
Sequence of Sodium-dependent serotonin transporter (Rattus norvegicus, UniProt P31652) (P31652 whole entry): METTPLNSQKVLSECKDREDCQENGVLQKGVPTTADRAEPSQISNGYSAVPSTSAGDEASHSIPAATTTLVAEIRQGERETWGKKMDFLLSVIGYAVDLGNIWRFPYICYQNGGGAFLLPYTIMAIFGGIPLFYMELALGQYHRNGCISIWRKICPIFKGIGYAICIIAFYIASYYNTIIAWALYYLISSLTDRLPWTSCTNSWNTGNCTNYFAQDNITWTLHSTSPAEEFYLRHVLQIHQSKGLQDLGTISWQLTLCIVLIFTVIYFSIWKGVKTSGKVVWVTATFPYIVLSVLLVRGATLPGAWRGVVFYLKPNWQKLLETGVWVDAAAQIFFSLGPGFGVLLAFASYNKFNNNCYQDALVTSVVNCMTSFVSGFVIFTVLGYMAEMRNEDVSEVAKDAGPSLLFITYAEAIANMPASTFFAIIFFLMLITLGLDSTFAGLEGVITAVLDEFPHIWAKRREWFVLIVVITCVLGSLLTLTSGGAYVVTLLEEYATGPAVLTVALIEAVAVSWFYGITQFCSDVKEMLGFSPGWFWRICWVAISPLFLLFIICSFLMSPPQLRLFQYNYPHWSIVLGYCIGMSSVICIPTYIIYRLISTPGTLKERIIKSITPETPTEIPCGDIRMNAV

T1 sequence (Q9Y5N1 whole entry): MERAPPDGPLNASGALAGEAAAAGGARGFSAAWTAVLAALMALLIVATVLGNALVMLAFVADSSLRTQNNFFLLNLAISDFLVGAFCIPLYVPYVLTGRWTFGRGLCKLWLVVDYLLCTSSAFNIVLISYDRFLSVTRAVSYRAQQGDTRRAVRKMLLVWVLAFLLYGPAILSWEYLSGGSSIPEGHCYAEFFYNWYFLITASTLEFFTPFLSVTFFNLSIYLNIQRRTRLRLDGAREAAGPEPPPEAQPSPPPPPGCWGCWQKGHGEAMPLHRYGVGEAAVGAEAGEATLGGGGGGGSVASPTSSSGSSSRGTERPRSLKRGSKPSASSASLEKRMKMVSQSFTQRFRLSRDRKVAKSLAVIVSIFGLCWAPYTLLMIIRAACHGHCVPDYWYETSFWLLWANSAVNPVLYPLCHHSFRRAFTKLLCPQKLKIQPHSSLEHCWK

Kb [1] [µM]	Compound	also measured
0.00389	Clc1ccc(C2CNCc3cc(OCCCN4CCCCC4)ncc32)cc1 (centres undefined)	
0.0182	CN1Cc2cc(OCCCN3CCCCC3)ncc2C(c2ccc(Cl)c(Cl)c2)C1 (centres undefined)	
0.0214	CN1Cc2cc(OCCCN3CCCCC3)ncc2C(c2ccccc2)C1 (centres undefined)	
	c1ccc(C2CNCc3cc(OCCCN4CCOCC4)ncc32)cc1 (centres undefined)	concentration at 24 h [2]: > 600 nM; Ki [3]: 4.77 µM; Ki [4]: 0.013 µM; Cmax [5]: 220 nM; Cmax [6]: 5560 nM
0.000661	CCN(CC)CCCOc1cc2c(cn1)C(c1ccccc1)CN(C)C2 (centres undefined)	
0.00355	COc1ccc(C2CNCc3cc(OCC4CCN(C(C)C)CC4)ncc32)cc1 (centres undefined)	
0.00977	CN1Cc2cc(OCCCN3CCCCC3)ncc2C(c2cccc(Cl)c2)C1 (centres undefined)	
0.00105	Clc1ccccc1C1CNCc2cc(OCCCN3CCCCC3)ncc21 (centres undefined)	
0.0257	COc1cccc(C2CN(C)Cc3cc(OCCCN4CCCCC4)ncc32)c1 (centres undefined)	
0.0166	CN1Cc2cc(OCCCN3CCCCC3)ncc2C(c2ccc(Cl)c(F)c2)C1 (centres undefined)	Ki [3]: 0.147 µM; Ki [4]: 0.007 µM; Ki [7]: 0.026 µM
0.00105	CN1Cc2cc(OCCCN3CCCCC3)ncc2C(c2ccccc2F)C1 (centres undefined)	
0.0112	Clc1ccc(C2CNCc3cc(OCCCN4CCCCC4)ncc32)cc1Cl (centres undefined)	Ki [3]: 0.032 µM
0.0141	CCN(CC)CCCOc1cc2c(cn1)C(c1ccc(Cl)c(Cl)c1)CNC2 (centres undefined)	
0.00589	COc1ccc(C2CNCc3cc(OCCCN4CCCCC4)ncc32)cc1 (centres undefined)	Ki [7]: 0.046 µM
0.0117	COc1ccc(C2CN(C)Cc3cc(OCCCN4CCOCC4)ncc32)cc1 (centres undefined)	
0.000724	c1ccc(C2CNCc3cc(OCCCN4CCCCC4)ncc32)cc1 (centres undefined)	
0.00355	CN1Cc2cc(OCCCN3CCCCC3)ncc2C(c2ccc(F)cc2)C1 (centres undefined)	
	CC(C)N1CCC(COc2cc3c(cn2)C(c2ccc(Cl)c(Cl)c2)CNC3)CC1 (centres undefined)	Ki [3]: 0.037 µM; Ki [4]: 0.013 µM; Ki [7]: 0.018 µM
